From patent publication US12171759B1, “Methods and uses for treating anhedonia” (Xenon Pharmaceuticals Inc., priority 2021, dated 2024) come the findings set out here.

Each structure is given as a SMILES string. Where “and” joins values, the source holds several entries; their conditions need not be identical. Equal entries are not always repeated. Entries after “also recorded” stand apart in the source; their conditions may differ.

For this assay, the system named is male Long Evans rats. The assay can be described thus: Progressive ratio (PR) schedule of reinforcement for food (Progressive Ratio Test, PRT). Further details: Sess. Duration: unit not given here. The note with it: AVG. Format: in vivo, rat. The procedure: The objective of this study was to test the effect of Compound A (1, 3, or 8 mg/kg, p.o.) on motivation as measured by rats responding for food under a progressive ratio (PR) schedule of reinforcement. Test measures included the total number of lever presses, and number of rewards (food pellets) acquired (break point).
The progressive ratio (PR) task is a cross species translational approach used as measure of motivational performance including as a measure of anhedonia (see, e.g., Hodos W., Science 1961, 134:943-944; Spierling et al., Physiol Behav. 2017, 177:99-106; Radke et al., Pharmacol Biochem Behav. 2015, 129:51-55; Hauser et al., Hormones and Behavior 2009, 56:364-375; Merali et al., Psychopharmacology 2003, 165:413-418; Marchese et al., Int J Neuropsychopharmacology 2013, 16:1611-1621; Karlsson et al., Hippocampus 2018, 28 (7): 512-522: Strauss et al., Schizophr Res. 2016, 170 (1): 198-204; and Gunthorpe et al., Epilepsia 2012, 53 (3): 412-424). In rodent species, the basic test design involves training subjects to lever press for a food reward (45 mg Bioserve pellets) under a schedule in which the number of responses required to achieve a pellet increased for successive reinforcers. The present study used a progression ratio derived from the equation ratio=[5×e^(0.2×reinforcer #)−5], and was as follows: 2, 4, 6, 9, 12, 15, 20, 25, 32, 40, 50, 62, 77, 95, 118, 145, 178, etc. Rats were therefore required to lever press a progressively increasing number of times to gain each successive reward, until reaching a break point, i.e., not meeting the schedule requirement. […] This provided a quantitative measurement of effort the animal would expend for the given reinforcer, which was interpreted as a measure of motivation. Based on the amount of food acquired during a typical test session (e.g., a break point of 10-12, corresponds to 0.45-0.54 g food), responding is limited by the amount of effort the animal is willing to expend for a single food pellet, rather than factors such as satiety.
Rats may be categorized based on differences in PR breakpoint, i.e., “low” and “high” responders. […] Motivational deficits are commonly seen in anhedonia associated with many neuropsychological disorders, such as depression, dementia, and schizophrenia (Lactôt et al., Alzheimer's and Dementia 2017, 13:84-100) and efficacy in treating “low” responder rats is indicative of efficacy in treating more significant or severe anhedonia.
The primary purpose of this proposal was to evaluate the effect of Compound A on motivational performance of Male Long Evans rats under a progressive ratio schedule. A large (N=32) cohort of rats were used and the effect of Compound A was investigated both in all rats, and also a “low” responder subgroup, based on the low tertile (N=11) cohort recorded over 5 days baseline responding prior to study commencement.
Dosage form: Compound A was suspended in 0.5% CMC-Na and 0.1% Tween 80 in purified water and sonicated until fully dissolved. Drug was administered at a volume of 10 mL/kg, orally.
Doses tested: 1, 3, 8 mg/kg.
Pretreatment time: 120 minutes.
Dosage form: D-Amp was suspended in 0.9% saline and sonicated until fully dissolved. Drug was administered at a volume of 1 mL/kg, intraperitoneally.
Pretreatment time: 10 minutes.
Test System: Thirty-two (32) experimentally non-naïve male Long Evans rats were included in the study.
Housing and Management of Test System: Animals were singly housed and maintained on a restricted diet regimen, in which they were fed approximately 18-20 g of standard laboratory chow once per day following the completion of study procedures (between 16:00 h and 18:00 h). Water was available ad-libitum, excluding during training/testing sessions. Animals were maintained on a 12 h/12 h light/dark cycle with all testing conducted during the animals' light cycle. All animal use procedures were performed in accordance with the principles of the Canadian Council on Animal Care (CCAC). […]

Where [1] appears, read: High responder subgroup (N=11), 1 mg/kg p.o.
Setting [2] is: High responder subgroup (N=11), 3 mg/kg p.o.
Setting [3] is: High responder subgroup (N=11), 8 mg/kg p.o.
Where [4] appears, read: Low responder subgroup (N=11), 1 mg/kg p.o.
Setting [5] is: Low responder subgroup (N=11), 3 mg/kg p.o.
[6] abbreviates: Low responder subgroup (N=11), 3 mg/kg p.o., listed as Cpmd A.
[7] abbreviates: Low responder subgroup (N=11), 8 mg/kg p.o.
[8] abbreviates: Low responder subgroup (N=11), 8 mg/kg p.o., listed as Cpmd A.
The mark [9] stands for this setting: all rats (N = 32), 1 mg/kg p.o., 120 min pretreatment.
Setting [10] is: all rats (N = 32), 3 mg/kg p.o., 120 min pretreatment.
Setting [11] is: all rats (N = 32), 3 mg/kg p.o., 120 min pretreatment, listed as Cpmd A.
Where [12] appears, read: all rats (N = 32), 8 mg/kg p.o., 120 min pretreatment.
[13] abbreviates: all rats (N = 32), 8 mg/kg p.o., 120 min pretreatment, listed as Cpmd A.
Where [14] appears, read: High responder subgroup (N=11), 0.6 mg/kg i.p.
Where [15] appears, read: Low responder subgroup (N=11), 0.6 mg/kg i.p.
Setting [16] is: all rats (N = 32), 0.6 mg/kg i.p., 10 min pretreatment.

As for `Cc1cc(N2CCc3cc(F)ccc3C2)cc(C)c1NC(=O)CC(C)(C)C` [Compound A, N-[4-(6-fluoro-3,4-dihydro-1H-isoquinolin-2-yl)-2,6-dimethylphenyl]-3,3-dimethylbutanamide], the “Lever Press” value reads like this: under setting [1], 707.5; under setting [2], 623.9; under setting [3], 700.0; under setting [4], 141.5; under setting [5], “selectively increase; also recorded: statistical significance”; under setting [6], 272.7. The “Lever Press” value under setting [7] is “selectively increase; also recorded: statistical significance”; the “Lever Press” value under setting [8] amounted to 258.0; the “Lever Press” value under setting [9] is 392.4; the “Lever Press” value under setting [10] is reported as “significant increase; also recorded: significantly increasing; also recorded: statistical significance”; the “Lever Press” value under setting [11] came out at 439.3; the “Lever Press” value under setting [12] is listed as “significant increase; also recorded: significantly increasing; also recorded: statistical significance”. The “Lever Press” value under setting [13] is 479.8. Also, the “Rewards (break point)” value runs as follows: under setting [1], 14.6; under setting [2], 14.3; under setting [3], 14.6; under setting [4], 8.2; under setting [5], “selectively increase; also recorded: statistical significance”; under setting [6], 10.7. The “Rewards (break point)” value was “selectively increase; also recorded: statistical significance” under setting [7]; 10.5 under setting [8]; 11.5 under setting [9]; “significant increase; also recorded: significantly increasing; also recorded: statistical significance” under setting [10]; 12.5 under setting [11]; “significant increase; also recorded: significantly increasing; also recorded: statistical significance” under setting [12]. In addition, under setting [13], the “Rewards (break point)” value came to 12.8. Further, the “Sess. Duration” value under setting [1] is 21.2; the “Sess. Duration” value under setting [2] was found to be 24.3; the “Sess. Duration” value under setting [3] was found to be 20.8; the “Sess. Duration” value under setting [4] is listed as 15.5; the “Sess. Duration” value under setting [5] was determined as 23.2; the “Sess. Duration” value under setting [7] came to 22.6. For the same compound, the “Sess. Duration” value was 16.9 under setting [9], 22.6 under setting [10] and 21.1 under setting [12].

For the compound `C[C@H](N)Cc1ccccc1` [D-Amphetamine, reference compound], under setting [14], the “Rewards (break point)” value is 17.5±0.9 and 17.5; the “Sess. Duration” value turned out to be 52.4. Besides, under setting [15], the “Rewards (break point)” value is 12.2±1.2 and 12.2; the “Sess. Duration” value is reported as 44.5. Under setting [16], the “Lever Press” value was 893+131 and 893.0; the “Rewards (break point)” value was 14.7 ± 0.7 and 14.7; the “Sess. Duration” value came to 44.8.
